Legend:
Format in all cases: in vivo
Alopecurus myosuroides = experiment: Post-emergence herbicidal action against ALOMY; details: 20 g a.i./ha, visual rating about 3 weeks after treatment
Method: (§1) Post-Emergence Herbicidal Action Against Harmful Plants and Crop Plant Compatibility Seeds of monocotyledonous and dicotyledonous weeds and crop plants are placed in sandy loam in plastic or wood-fibre pots, covered with soil and cultivated in a greenhouse under controlled growth conditions. 2 to 3 weeks after sowing, the test plants are treated at the one-leaf stage. The compounds of the invention, formulated in the form of wettable powders (WP) or as emulsion concentrates (EC), are then sprayed onto the green parts of the plants as aqueous suspension or emulsion with addition of 0.5% additive at a water application rate of 600 l/ha (converted). After the test plants have been kept in the greenhouse under optimum growth conditions for about 3 weeks, the activity of the preparations is rated visually in comparison to untreated controls. For example, 100% activity=the plants have died, 0% activity=like control plants. [table]

Echinochloa crus-galli = experiment: Post-emergence herbicidal action against ECHCG; details: 20 g a.i./ha, visual rating about 3 weeks after treatment
Method: as §1

Setaria viridis = experiment: Post-emergence herbicidal action against SETVI; details: visual rating about 3 weeks after treatment
Method: as §1

Amaranthus retroflexus = experiment: Post-emergence herbicidal action against AMARE; details: 20 g a.i./ha
Method: as §1

Veronica persica = experiment: Post-emergence herbicidal action against VERPE; details: 20 g a.i./ha
Method: as §1

DIGSA = experiment: Post-emergence herbicidal action against DIGSA; details: 20 g a.i./ha, visual rating about 3 weeks after treatment
Method: as §1, with “plants.” for “plants. [table]”

Pharbitis purpurea = experiment: Post-emergence herbicidal action against PHBPU; details: 20 g a.i./ha
Method: as §1

Polygonum convolvulus = experiment: Post-emergence herbicidal action against POLCO; details: 20 g a.i./ha
Method: as §1

Avena fatua = experiment: Post-emergence herbicidal action against AVEFA; details: 20 g a.i./ha, visual rating about 3 weeks after treatment
Method: as §1

Abutilon theophrasti = experiment: Post-emergence herbicidal action against ABUTH; details: 20 g a.i./ha, visual rating about 3 weeks after treatment
Method: as §1

Lolium rigidum = experiment: Post-emergence herbicidal action against LOLRI; details: 20 g a.i./ha, visual rating about 3 weeks after treatment
Method: as §1

C[S+]([O-])CCOC(=O)C1C=CC(NC(=O)C2(C)CC(c3cccc(F)c3)=NO2)C1 (mixture of isomers) [Example I-61]
80%: Herbicidal action against [%] ALOMY (Alopecurus myosuroides) | Herbicidal action against [%] ECHCG (Echinochloa crus-galli) | Herbicidal action against [%] SETVI (Setaria viridis; 20 g a.i./ha) | Herbicidal action against [%] AMARE (Amaranthus retroflexus) | Herbicidal action against [%] VERPE (Veronica persica)

CC1(C(=O)NC2C=CC(C(=O)OCCSC3CCCCC3)C2)CC(c2cc(F)cc(F)c2)=NO1 (centres unmarked) [Example I-03]
90%: Herbicidal action against [%] ALOMY (Alopecurus myosuroides)
80%: Herbicidal action against [%] DIGSA (DIGSA) | Herbicidal action against [%] ECHCG (Echinochloa crus-galli) | Herbicidal action against [%] SETVI (Setaria viridis; 20 g a.i./ha) | Herbicidal action against [%] PHBPU (Pharbitis purpurea) | Herbicidal action against [%] POLCO (Polygonum convolvulus)

CN(C)C(=O)SCCOC(=O)C1C=CC(NC(=O)C2(C)CC(c3cc(F)cc(F)c3)=NO2)C1 (centres unmarked) [Example I-04]
80%: Herbicidal action against [%] AVEFA (Avena fatua) | Herbicidal action against [%] DIGSA (DIGSA) | Herbicidal action against [%] ECHCG (Echinochloa crus-galli) | Herbicidal action against [%] SETVI (Setaria viridis; 20 g a.i./ha) | Herbicidal action against [%] ABUTH (Abutilon theophrasti) | Herbicidal action against [%] PHBPU (Pharbitis purpurea) | Herbicidal action against [%] VERPE (Veronica persica)
100%: Herbicidal action against [%] ALOMY (Alopecurus myosuroides)

CC(C)C(=O)SCCOC(=O)C1C=CC(NC(=O)C2(C)CC(c3cc(F)cc(F)c3)=NO2)C1 (centres unmarked) [Example I-05]
100%: Herbicidal action against [%] ALOMY (Alopecurus myosuroides)
80%: Herbicidal action against [%] DIGSA (DIGSA) | Herbicidal action against [%] ECHCG (Echinochloa crus-galli) | Herbicidal action against [%] SETVI (Setaria viridis; 20 g a.i./ha) | Herbicidal action against [%] PHBPU (Pharbitis purpurea) | Herbicidal action against [%] POLCO (Polygonum convolvulus) | Herbicidal action against [%] VERPE (Veronica persica)

CC1(C(=O)NC2C=CC(C(=O)OCCS(C)(=O)=O)C2)CC(c2cc(F)cc(F)c2)=NO1 (centres unmarked) [Example I-14]
80%: Herbicidal action against [%] AVEFA (Avena fatua) | Herbicidal action against [%] ECHCG (Echinochloa crus-galli) | Herbicidal action against [%] PHBPU (Pharbitis purpurea)
90%: Herbicidal action against [%] ALOMY (Alopecurus myosuroides) | Herbicidal action against [%] DIGSA (DIGSA) | Herbicidal action against [%] LOLRI (Lolium rigidum) | Herbicidal action against [%] SETVI (Setaria viridis; 20 g a.i./ha) | Herbicidal action against [%] AMARE (Amaranthus retroflexus) | Herbicidal action against [%] VERPE (Veronica persica)

CC(=O)CCSCCOC(=O)C1C=CC(NC(=O)C2(C)CC(c3cc(F)cc(F)c3)=NO2)C1 (centres unmarked) [Example I-15]
80%: Herbicidal action against [%] DIGSA (DIGSA) | Herbicidal action against [%] ECHCG (Echinochloa crus-galli) | Herbicidal action against [%] LOLRI (Lolium rigidum) | Herbicidal action against [%] POLCO (Polygonum convolvulus) | Herbicidal action against [%] VERPE (Veronica persica)
90%: Herbicidal action against [%] ALOMY (Alopecurus myosuroides)

COC1(C(=O)NC2C=CC(C(=O)OCCSC(F)(F)F)C2)CC(c2cc(F)cc(F)c2)=NO1 (centres unmarked) [Example I-21]
90%: Herbicidal action against [%] ALOMY (Alopecurus myosuroides) | Herbicidal action against [%] ECHCG (Echinochloa crus-galli) | Herbicidal action against [%] VERPE (Veronica persica)
100%: Herbicidal action against [%] LOLRI (Lolium rigidum)
80%: Herbicidal action against [%] AVEFA (Avena fatua) | Herbicidal action against [%] DIGSA (DIGSA) | Herbicidal action against [%] SETVI (Setaria viridis; 20 g a.i./ha) | Herbicidal action against [%] ABUTH (Abutilon theophrasti) | Herbicidal action against [%] POLCO (Polygonum convolvulus)

C=CCSCCOC(=O)C1C=CC(NC(=O)C2(OC)CC(c3cc(F)cc(F)c3)=NO2)C1 (centres unmarked) [Example I-26]
90%: Herbicidal action against [%] ALOMY (Alopecurus myosuroides) | Herbicidal action against [%] AVEFA (Avena fatua) | Herbicidal action against [%] DIGSA (DIGSA) | Herbicidal action against [%] LOLRI (Lolium rigidum)
80%: Herbicidal action against [%] ECHCG (Echinochloa crus-galli) | Herbicidal action against [%] ABUTH (Abutilon theophrasti) | Herbicidal action against [%] AMARE (Amaranthus retroflexus) | Herbicidal action against [%] POLCO (Polygonum convolvulus) | Herbicidal action against [%] VERPE (Veronica persica)

CSCCOC(=O)C1C=CC(NC(=O)C2(C3CC3)CC(c3cc(F)cc(F)c3)=NO2)C1 (centres unmarked) [Example I-27]
90%: Herbicidal action against [%] SETVI (Setaria viridis; 80 g a.i./ha)

C=CC1(C(=O)NC2C=CC(C(=O)OCCSC)C2)CC(c2cccc(F)c2)=NO1 (centres unmarked) [Example I-35]
80%: Herbicidal action against [%] AMARE (Amaranthus retroflexus) | Herbicidal action against [%] PHBPU (Pharbitis purpurea) | Herbicidal action against [%] VERPE (Veronica persica)
90%: Herbicidal action against [%] ALOMY (Alopecurus myosuroides) | Herbicidal action against [%] AVEFA (Avena fatua) | Herbicidal action against [%] DIGSA (DIGSA) | Herbicidal action against [%] ECHCG (Echinochloa crus-galli) | Herbicidal action against [%] LOLRI (Lolium rigidum) | Herbicidal action against [%] SETVI (Setaria viridis; 20 g a.i./ha) | Herbicidal action against [%] POLCO (Polygonum convolvulus)

CSCCOC(=O)C1C=CC(NC(=O)C2(C)CC(c3cc(C#N)cc(C#N)c3)=NO2)C1 (centres unmarked) [Example I-52]
80%: Herbicidal action against [%] AVEFA (Avena fatua) | Herbicidal action against [%] PHBPU (Pharbitis purpurea) | Herbicidal action against [%] POLCO (Polygonum convolvulus) | Herbicidal action against [%] VERPE (Veronica persica)
90%: Herbicidal action against [%] ALOMY (Alopecurus myosuroides)

C=CC1(C(=O)NC2C=CC(C(=O)OCCSC)C2)CC(c2cc(C)cc(F)c2)=NO1 (centres unmarked) [Example I-56]
80%: Herbicidal action against [%] ALOMY (Alopecurus myosuroides) | Herbicidal action against [%] LOLRI (Lolium rigidum) | Herbicidal action against [%] POLCO (Polygonum convolvulus)

CSCCOC(=O)C1C=CC(NC(=O)C2(CCl)CC(c3cc(F)cc(C#N)c3)=NO2)C1 (centres unmarked) [Example I-58]
80%: Herbicidal action against [%] AVEFA (Avena fatua) | Herbicidal action against [%] ECHCG (Echinochloa crus-galli) | Herbicidal action against [%] POLCO (Polygonum convolvulus) | Herbicidal action against [%] VERPE (Veronica persica)
90%: Herbicidal action against [%] ALOMY (Alopecurus myosuroides)

CSCCOC(=O)C1C=CC(NC(=O)C2(C)CC(c3cc(C)cc(F)c3)=NO2)C1 (centres unmarked) [Example I-59]
90%: Herbicidal action against [%] DIGSA (DIGSA)
80%: Herbicidal action against [%] ECHCG (Echinochloa crus-galli) | Herbicidal action against [%] AMARE (Amaranthus retroflexus) | Herbicidal action against [%] PHBPU (Pharbitis purpurea) | Herbicidal action against [%] VERPE (Veronica persica)

CSCCOC(=O)C1C=CC(NC(=O)C2(CCl)CC(c3cc(F)cc(F)c3)=NO2)C1 (centres unmarked) [Example I-60]
80%: Herbicidal action against [%] ALOMY (Alopecurus myosuroides) | Herbicidal action against [%] AVEFA (Avena fatua) | Herbicidal action against [%] ECHCG (Echinochloa crus-galli) | Herbicidal action against [%] LOLRI (Lolium rigidum) | Herbicidal action against [%] AMARE (Amaranthus retroflexus) | Herbicidal action against [%] POLCO (Polygonum convolvulus)

COC1(C(=O)NC2C=CC(C(=O)OCCSC)C2)CC(c2cc(C)cc(F)c2)=NO1 (centres unmarked) [Example I-62]
90%: Herbicidal action against [%] ALOMY (Alopecurus myosuroides) | Herbicidal action against [%] LOLRI (Lolium rigidum) | Herbicidal action against [%] SETVI (Setaria viridis; 20 g a.i./ha) | Herbicidal action against [%] AMARE (Amaranthus retroflexus) | Herbicidal action against [%] VERPE (Veronica persica)
80%: Herbicidal action against [%] AVEFA (Avena fatua) | Herbicidal action against [%] DIGSA (DIGSA) | Herbicidal action against [%] ECHCG (Echinochloa crus-galli) | Herbicidal action against [%] PHBPU (Pharbitis purpurea) | Herbicidal action against [%] POLCO (Polygonum convolvulus)

CSCCOC(=O)C1C=CC(NC(=O)C2(CO)CC(c3cc(F)cc(F)c3)=NO2)C1 (centres unmarked) [Example I-70]
100%: Herbicidal action against [%] ALOMY (Alopecurus myosuroides)
80%: Herbicidal action against [%] AVEFA (Avena fatua) | Herbicidal action against [%] PHBPU (Pharbitis purpurea) | Herbicidal action against [%] POLCO (Polygonum convolvulus)
90%: Herbicidal action against [%] ECHCG (Echinochloa crus-galli) | Herbicidal action against [%] SETVI (Setaria viridis; 20 g a.i./ha)

CSCCOC(=O)C1C=CC(NC(=O)C2(C)CC(c3cc(Cl)cc(C#N)c3)=NO2)C1 (centres unmarked) [Example I-72]
90%: Herbicidal action against [%] ALOMY (Alopecurus myosuroides) | Herbicidal action against [%] DIGSA (DIGSA) | Herbicidal action against [%] LOLRI (Lolium rigidum) | Herbicidal action against [%] SETVI (Setaria viridis; 20 g a.i./ha)
80%: Herbicidal action against [%] AVEFA (Avena fatua) | Herbicidal action against [%] ECHCG (Echinochloa crus-galli) | Herbicidal action against [%] AMARE (Amaranthus retroflexus) | Herbicidal action against [%] POLCO (Polygonum convolvulus) | Herbicidal action against [%] VERPE (Veronica persica)

CSCCOC(=O)C1C=CC(NC(=O)C2(CF)CC(c3cc(F)cc(F)c3)=NO2)C1 (centres unmarked) [Example I-74]
90%: Herbicidal action against [%] DIGSA (DIGSA) | Herbicidal action against [%] ECHCG (Echinochloa crus-galli) | Herbicidal action against [%] LOLRI (Lolium rigidum) | Herbicidal action against [%] ABUTH (Abutilon theophrasti)
80%: Herbicidal action against [%] AMARE (Amaranthus retroflexus) | Herbicidal action against [%] VERPE (Veronica persica)
